Results taken from patent US6949516B2, “Dipeptide apoptosis inhibitors and the use thereof” (Cytovia, Inc., priority 1997, dated 2005).
Where a SMILES comes first, the peptide text is derived from it. The star is where a group is joined. Cbz = O=C(OCc1ccccc1)*; CH2F = FC*

Legend:
HeLa cells = experiment: Effect of Z-VD-fmk on TNF-α-induced cell death in HeLa cells (calcein AM, Example 25); format: cell-based; conditions: below 1 μM (data not shown)
Protocol: Tumor necrosis factor alpha (TNF-α) can trigger apoptosis in a number of cell types by initiating the caspase cascade and its apoptosis inducing activity can be inhibited by peptide-based caspase inhibitors. However, high concentrations of the inhibitors (50 μM or greater) is required to have good anti-apoptotic effect. HeLa cells, a cell line commonly employed in TNF-α cell death studies, was used here to determine the anti-apoptotic potency of Z-VD-fmk.
HeLa cells were seeded in 48-well multidishes at a density of 50,000 cells per well 24 hours before treatment. They were then pre-incubated with varying concentrations of Z-VD-fmk for 2 hours and challenged with TNF-α (25 ng/mL) and cycloheximide (CHX; 30 μg/mL). The cultures were incubated for an additional 24 hours and dead cells were removed by two washes with PBS. The density of surviving cells was then measured by incubating each culture for 45 minutes with calcein AM, a profluorescent dye which is taken up by living cells and converted to a fluorescent product. The resulting data were expressed as % control values (control values were cells incubated with cycloheximide but without TNF-α).
Z-VD-fmk provided good cytoprotection at concentrations approaching 100 nM.

[1] = test system: PARP cleavage in Jurkat cells; experiment: Effect of Z-VD-fmk on PARP cleavage in antiFas-treated Jurkat cells (Example 24); format: cell-based, human
Protocol: Poly(ADP)ribose polymerase (PARP) was one of the first caspase-3 substrates identified and the cleavage of PARP is still considered to be a near-universal marker for caspase-3 activation and caspase-mediated apoptosis. The ability of an anti-apoptotic compound to block PARP cleavage is therefore a useful indicator of its ability to inhibit apoptosis. The potency of Z-VD-fmk in a PARP cleavage assay was tested using antiFas-treated Jurkat cells. 2×10^6 Jurkat cells were seeded in each well of a 6-well dish and pre-incubated with test compounds for 30 minutes. The cells were then challenged with 500 ng/mL of an agonistic antiFas antibody or PBS for 4 hours. The cells were then harvested, pelleted gently, washed two times with PBS and lysed in RIPA buffer. Aliquots of the lysate were analyzed by SDS-PAGE and the proteins were transferred to PVDF membranes for Western blotting. The primary antibody was a polyclonal antiPARP serum which cross-reacts with both full-length PARP and the caspase-3-generated cleavage product.

For `COC(=O)C[C@H](NC(=O)[C@H](C)NC(=O)[C@@H](NC(=O)OCc1ccccc1)C(C)C)C(=O)CF` [Z-VAD-fmk, reference compound] (Cbz-Val-Ala-Asp(OMe)-CH2F), the “cytoprotection against TNF-α-induced cell death” value (HeLa cells) was “loses much of its cytoprotective properties”, the “inhibition of PARP cleavage” value ([1]; 500 nM, antiFas-treated Jurkat cells) was “much less effective” and the “inhibition of PARP cleavage” value ([1]; 5 μM, antiFas-treated Jurkat cells (data not shown)) was “effective inhibitor”.
